According to US8759536B2, “Rhodanine derivatives, method for preparing same, and pharmaceutical composition for the prevention or treatment of aids containing the rhodanine derivatives as active ingredients” (Avixgen Inc., priority 2010, dated 2014):

test system: HIV; experiment: Assay for inhibitory activity against HIV (p24 ELISA, infected MT-4 cells); type: cell-based; conditions: Human immunodeficiency virus 1, MT4; MT-4 cells infected with pNL4-3-derived HIV; p24 ELISA after 48 + 48 hrs; read-out: Conc. for Inhibition of HIV Activity (IC50)
Method: The rhodanine derivatives of the present invention were assayed for inhibitory activity against HIV as follows.
A pNL4-3 vector carrying an HIV genome was transduced into 293FT cells. […] 293FT cells were seeded at a density of 3.0×10^5 cells/well into 6-well plates containing antibiotic-free DMEM supplemented with 10% FBS and grown for 48 hrs. Upon 90-95% confluency, the transduction was performed.
The DNA (pNL4-3) was added at a final concentration of 10 ng/mL to 250 μL of the reduced serum medium Opti-MEM I (GIBCO™, USA). Separately, 4 μL of Lipofectamine™ 2000 (Invitrogen, USA) was mixed with 250 μL of Opti-MEM I (GIBCO™), and incubated at room temperature for 5 min. The DNA (pNL4-3) was mixed at a ratio of 1:2 with the lipofectamine and reacted at room temperature for 20 min to form a DNA-lipofectamine complex. After removal of the medium from the cell culture, the mixture containing the DNA-lipofectamine complex was added to the cells and incubated for 4 hrs in a CO2 incubator. Then, the cell culture medium was replaced with a fresh antibiotic-free, 10% FBS-supplemented DMEM, followed by incubation for an additional 48 hrs. The HIV-infected cell culture was centrifuged at 1,500 rpm for 5 min to give a virus supernatant.
MT-4 cells were plated at a density of 1.0×10^6 cells/mL into 6-well plates containing RPMI supplemented with 10% FBS and incubated for 4 hrs before infection at a ratio of 1:1 with the virus supernatant. The cells were incubated for 48 hrs in a CO2 incubator, after which the culture medium was replaced with a fresh one. Again, incubation was continued for an additional 72 hrs to amplify the virus. After centrifugation at 1,500 rpm for 5 min, the virus supernatant thus obtained was examined for virus density using a Virononstika HIV-1 Antigen Microelisa system kit (bioMerieux, Inc. Netherland).
2. Assay for Inhibitory Activity Against HIV
The rhodanine derivatives prepared in Examples 1 to 38 were dissolved in DMSO to prepare respective 10 mM or 20 mM stocks, and stored at −20° C. The stocks were diluted to a starting concentration of 200 μM in DMSO before use in experiments.
MT-4 cells were suspended at a density of 4×10^5 cells in 200 μL of RPMI 1640 (Gibco, 10% FBS) per well of 24-well plates, and infected with 200 μL of a virus supernatant containing 2×10^5 pg/mL to give a total volume of 400 μL. After the stocks of the rhodanine derivatives were […] diluted to 200 μM in DMSO, 2 μL of each dilution was added to the cells to a final concentration of 1 μM or less. For a positive control, 10 μM AZT (azidothymidine, Sigma, USA) was used at a final concentration of 50 nM while DMSO was used at a final concentration of 0.5% as a negative control. The cells were cultured for 48 hrs in a CO2 incubator (37° C., 5% CO2), and the culture medium was replaced by RPMI 1640 containing the rhodanine derivative at a final concentration of 1 μM, followed by incubation for an additional 48 hrs. Virus soups were separated from cells by centrifugation at 1,500 rpm for 5 min and then at 13, 000 rpm for 5 min. ELISA for p24 concentrations was carried out using a Virononstika HIV-1 Antigen Microelisa system kit (bioMerieux, Inc. Netherland) to determine the inhibitory activity of each of the rhodanine derivatives against HIV.

Row | SMILES | IC50 [nM]
1 | Cc1ccc(N2C(=O)/C(=C/c3ccc(-c4cccc([N+](=O)[O-])c4)o3)SC2=S)c(C)c1 [Example 1, 3-(2,4-Dimethyl-phenyl)-5-[5-(3-nitro-phenyl)-furan-2-ylmethylene]-2-thioxo-thiazolidin-4-one] | 800
2 | CC(=O)CCN1C(=O)/C(=C/c2ccc(-c3ccc(Br)cc3)o2)SC1=S [Example 5, 5-[5-(4-bromo-phenyl)-furan-2-ylmethylene]-3-(3-oxo-butyl)-2-thioxo-thiazolidin-4-one] | 1000
3 | O=C1/C(=C/c2ccc(-c3ccc(Cl)cc3Cl)o2)SC(=S)N1c1cccc(F)c1 [Example 8, 5-[5-(2,4-dichloro-phenyl)-furan-2-ylmethylene]-3-(3-fluoro-phenyl)-2-thioxo-thiazolidin-4-one] | 500
4 | O=C1C(=Cc2ccc(-c3ccc([N+](=O)[O-])cc3)o2)SC(=S)N1c1cccc(F)c1 [Example 13, 3-(3-fluoro-phenyl)-5-[5-(4-nitro-phenyl)-furan-2-ylmethylene]-2-thioxo-thiazolidin-4-one] | 500
5 | O=C1C(=Cc2ccc(-c3cc([N+](=O)[O-])ccc3Br)o2)SC(=S)N1c1ccc(I)cc1 [Example 16, 5-[5-(2-bromo-5-nitro-phenyl)-furan-2-ylmethylene]-3-(4-iodo-phenyl)-2-thioxo-thiazolidin-4-one] | 500
6 | COc1ccc(-c2ccc(/C=C3\SC(=S)N(CC(=O)O)C3=O)o2)c([N+](=O)[O-])c1 [Example 21, {5-[5-(4-methoxy-2-nitro-phenyl)-furan-2-ylmethylene]-4-oxo-2-thioxo-thiazolidin-3-yl}-acetic acid] | 1000
7 | CC(C)OC(=O)c1ccc(-c2ccc(/C=C3/SC(=S)NC3=O)o2)cc1 [Example 23, 4-[5-(4-oxo-2-thioxo-thiazolidin-5-ylidenemethyl)-furan-2-yl]-benzoic acid isopropylester] | 400
8 | CCCOC(=O)c1cc(-c2ccc(/C=C3/SC(=S)NC3=O)o2)ccc1Cl [Example 29, 2-chloro-5-[5-(4-oxo-2-thioxo-thiazolidin-5-ylidenemethyl)-furan-2-yl]-benzoic acid propyl ester] | 500
9 | O=C(O)CN1C(=O)/C(=C/c2ccc(-c3cccc([N+](=O)[O-])c3)o2)SC1=S [Example 38, {5-[5-(3-nitro-phenyl)-furan-2-ylmethylene]-4-oxo-2-thioxo-thiazolidin-3-yl}-acetic acid] | 750
